Measured values reported in patent US9365572B2, “PI3K and/or mTOR inhibitor” (XUANZHU PHARMA CO., LTD., priority 2012, dated 2016).

Tests used:
[1] = biological target: EphA1 (Homo sapiens (Human), UniProt P21709); assay: Kinase selectivity, Mobility shift assay; format: biochemical
Procedure: (§1) Object: In this assay, the inhibitory activity of the test substance on the kinases listed in Table 3 was determined, and therefore the selectivity of the present compound was determined.
(§2) Except for the BRAF V600E kinase in Table 3, the Mobility shift assay was used for other kinases.
(§3) 1. Preparation of Agents:
(§4) • 1.1 1-fold kinase buffer without MnCl2: 50 mM HEPES, pH 7.5, 0.0015% Brij-35, 10 mM MgCl2, 2 mM DTT. • 1.2 1-fold kinase buffer with MnCl2: 50 mM HEPES, pH 7.5, 0.0015% Brij-35, 10 mM MgCl2, 10 mM MnCl2, 2 mM DTT. • 1.3 Termination solution: 100 mM HEPES, pH 7.5, 0.0015% Brij-35, 0.2% Coating Reagent#3, 50 mM EDTA. • 1.4 2.5-fold kinase solution: The kinase was added to the 1-fold kinase buffer to form a 2.5-fold kinase solution. • 1.5 2.5-fold substrate solution: FAM fluorescence-labelled polypeptide and ATP were added to the 1-fold kinase buffer to form a 2.5-fold substrate solution. 2. Preparation of 5-fold compound
(§5) The final test concentration of the compound was 10 μM at maximum. Firstly, a 50-fold concentration (i.e. 500 μM) was prepared with 100% DMSO. The compound was diluted with 100% DMSO by 5 folds at 5 concentrations (successively 500 μM, 100 μM, 20 μM, 4 μM, and 0.8 μM). After diluting with 1-fold kinase buffer by 10 folds, 5 μl of the samples were transferred to a 384-well reaction plate. Two negative control wells and two positive control wells were set at each line respectively. Replication was made in a 96-well plate in five concentrations of 5-fold compound. 10% DMSO was added to the positive control well, and 5 μl of EDTA (250 mM) was added to the negative control well.
(§6) • 3.1 To the 384-well reaction plate was added 5-fold compound dissolved in 10% DMSO at 5 μl/well. • 3.2 To the 384-well reaction plate was added 2.5-fold kinase solution at 10 μl/well. […] 4. […] 2. […] 3. […] 4.

[2] = biological target: FLT3 (Homo sapiens (Human), UniProt P36888); assay: Kinase selectivity, Mobility shift assay; format: biochemical
Procedure: as §1, §2, §3, §4, §5, §6

[3] = biological target: IRAK4 (Homo sapiens (Human), UniProt Q9NWZ3); assay: Kinase selectivity, Mobility shift assay; format: biochemical
Procedure: as §1, §2, §3, §4, §5, §6

[4] = biological target: LCK (Homo sapiens (Human), UniProt P06239); assay: Kinase selectivity, Mobility shift assay; format: biochemical
Procedure: as §1, §2, §3, §4, §5, §6

[5] = biological target: PKACa (Homo sapiens (Human), UniProt P17612); assay: Kinase selectivity, Mobility shift assay; format: biochemical
Procedure: as §1, §2, §3, §4, §5, §6

[6] = biological target: RSK2 (Homo sapiens (Human), UniProt P51812); assay: Kinase selectivity, Mobility shift assay; format: biochemical
Procedure: as §1, §2, §3, §4, §5, §6

[7] = biological target: TAOK2 (Homo sapiens (Human), UniProt Q9UL54); assay: Kinase selectivity, Mobility shift assay; format: biochemical
Procedure: as §1, §2, §3, §4, §5, §6

[8] = biological target: Sigmaσ1 (Homo sapiens (Human), UniProt Q99720); assay: Radioligand binding assay No. 278110; settings: test substance 10 μM, read-out: Inhibitory rate (%), Sigmaσ1
[9] = biological target: mTOR (Homo sapiens (Human), UniProt P42345); assay: mTOR enzymatic assay; format: biochemical; settings: read-out: In vitro enzymatic activity (IC50) mTOR
Procedure: Assay 1-2: In Vitro Enzymatic Inhibitory Activity of the Present Compound
as §3
• 1.1 1-fold kinase buffer: 50 mM HEPES, pH 7.5, 10 mM MgCl2, 1 mM EGTA, 3 mM MnCl2, 0.01% Tween-20, 2 mM DTT; • 1.2 4-fold kinase solution: mTOR kinase was added to 1-fold kinase buffer to form 4-fold kinase solution with a final concentration of 2.5 nM; • 1.3 2-fold substrate and ATP solution: the substrate 4EBP1 and ATP were added to 1-fold kinase buffer to form 2-fold substrate solution with final concentration of 50 nM of 4EBP1 and 10.8 μM of ATP; • 1.4 4-fold test substance solutions: 100-fold test substance solutions in different gradient concentrations were formulated with 100% DMSO, and diluted by 25 folds with 1-fold kinase buffer to form 4-fold test substance solutions in different gradient concentrations. • 1.5 Preparation of detection solution: a detection solution containing 2-fold final concentrations of EDTA and 4EBP1 phosphorylated antibody was formulated, wherein the final concentration for EDTA was 8 mM, and the final concentration for the 4EBP phosphorylated antibody was 2 nM. 2. Procedure • 2.1 To each well of a 384-well plate was added 2.5 μL of the 4-fold test substance solutions in gradient concentrations. The replication was made. • 2.2 To each well was added 2.5 μL of 4-fold kinase solution, and then the plate was incubated for 10 mins; • 2.3 Then to each well was added 5 μL/of 2-fold substrate and ATP solution, and then the plate was incubated at room temperature for 1 hour; • 2.4 Finally, 10 μL of the detection solution was added to terminate the reaction. After 60 mins, the data Lance signal ([…]) was read from Envision. 3 Data treatment Inhibition rate (%)=[…] • wherein: • maximum refers to the reading at the DMSO control well. • minimum refers to the reading at the control well without kinase, • The data was input into Graphpad Prism 5.0 to plot and obtain the curve and IC50 value. PI3Kα Enzymatic Assay 1. […] After 15 mins, the data Lance signal ([…]) was read from Envision. 3 Data treatment Inhibition rate (%)=100−(sample value−minimum)/(maximum−minimum)×100 • wherein: • maximum refers to the reading at the control well without kinase, • minimum refers to the reading at the DMSO control well, • The data was input into Graphpad Prism 5.0 to plot and obtain the curve and IC50 value. […]

EphA1, sequence (P21709 26-976, species assumed): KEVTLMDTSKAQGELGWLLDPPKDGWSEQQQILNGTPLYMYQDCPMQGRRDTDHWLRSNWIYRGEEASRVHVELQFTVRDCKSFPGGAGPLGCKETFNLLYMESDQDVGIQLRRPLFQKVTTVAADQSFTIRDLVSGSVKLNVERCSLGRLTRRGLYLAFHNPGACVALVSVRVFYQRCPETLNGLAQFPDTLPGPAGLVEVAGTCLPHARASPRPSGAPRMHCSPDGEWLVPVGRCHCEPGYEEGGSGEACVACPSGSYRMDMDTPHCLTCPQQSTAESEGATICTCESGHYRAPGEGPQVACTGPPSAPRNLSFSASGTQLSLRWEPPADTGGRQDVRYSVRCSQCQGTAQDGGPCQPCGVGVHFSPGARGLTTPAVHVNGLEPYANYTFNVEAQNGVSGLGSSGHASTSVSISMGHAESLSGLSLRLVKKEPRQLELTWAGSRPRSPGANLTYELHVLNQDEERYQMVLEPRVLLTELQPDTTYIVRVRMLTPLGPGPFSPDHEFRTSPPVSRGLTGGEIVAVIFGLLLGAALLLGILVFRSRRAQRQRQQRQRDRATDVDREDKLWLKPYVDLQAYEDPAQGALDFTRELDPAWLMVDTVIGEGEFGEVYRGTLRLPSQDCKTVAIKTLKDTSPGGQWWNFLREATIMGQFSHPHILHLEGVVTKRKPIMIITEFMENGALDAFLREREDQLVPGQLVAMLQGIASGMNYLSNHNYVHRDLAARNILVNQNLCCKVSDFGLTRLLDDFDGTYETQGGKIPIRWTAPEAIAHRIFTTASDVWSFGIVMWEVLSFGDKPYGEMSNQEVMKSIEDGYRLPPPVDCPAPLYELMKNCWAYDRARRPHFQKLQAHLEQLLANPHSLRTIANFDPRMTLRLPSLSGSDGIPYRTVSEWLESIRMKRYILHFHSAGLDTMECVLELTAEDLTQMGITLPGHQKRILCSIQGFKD
FLT3, sequence (P36888 27-993, species assumed): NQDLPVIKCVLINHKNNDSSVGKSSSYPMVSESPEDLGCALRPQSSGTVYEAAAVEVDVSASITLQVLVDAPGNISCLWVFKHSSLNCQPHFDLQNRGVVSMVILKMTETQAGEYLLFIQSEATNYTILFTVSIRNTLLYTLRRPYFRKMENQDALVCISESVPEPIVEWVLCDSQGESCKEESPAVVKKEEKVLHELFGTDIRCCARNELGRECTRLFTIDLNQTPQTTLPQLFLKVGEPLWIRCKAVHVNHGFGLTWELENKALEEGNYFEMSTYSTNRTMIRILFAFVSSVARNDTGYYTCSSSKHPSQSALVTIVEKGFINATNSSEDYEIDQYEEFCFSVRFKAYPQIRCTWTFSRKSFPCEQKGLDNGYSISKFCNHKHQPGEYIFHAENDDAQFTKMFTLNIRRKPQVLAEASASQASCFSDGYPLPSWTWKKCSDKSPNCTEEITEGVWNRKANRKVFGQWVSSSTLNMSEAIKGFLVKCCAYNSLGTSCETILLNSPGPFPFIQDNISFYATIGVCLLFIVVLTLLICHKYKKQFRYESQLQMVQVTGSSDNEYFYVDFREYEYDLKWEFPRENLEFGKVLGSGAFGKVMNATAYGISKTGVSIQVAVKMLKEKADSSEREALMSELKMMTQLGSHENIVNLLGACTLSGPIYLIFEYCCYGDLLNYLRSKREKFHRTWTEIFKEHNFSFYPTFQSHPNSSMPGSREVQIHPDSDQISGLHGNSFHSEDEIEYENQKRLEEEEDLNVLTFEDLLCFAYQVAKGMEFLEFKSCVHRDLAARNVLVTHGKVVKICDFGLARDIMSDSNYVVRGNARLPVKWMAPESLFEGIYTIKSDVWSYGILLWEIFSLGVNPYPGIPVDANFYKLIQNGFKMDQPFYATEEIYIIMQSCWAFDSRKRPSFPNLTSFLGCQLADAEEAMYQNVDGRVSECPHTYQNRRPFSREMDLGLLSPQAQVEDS
Sigmaσ1, sequence (Q99720 whole entry): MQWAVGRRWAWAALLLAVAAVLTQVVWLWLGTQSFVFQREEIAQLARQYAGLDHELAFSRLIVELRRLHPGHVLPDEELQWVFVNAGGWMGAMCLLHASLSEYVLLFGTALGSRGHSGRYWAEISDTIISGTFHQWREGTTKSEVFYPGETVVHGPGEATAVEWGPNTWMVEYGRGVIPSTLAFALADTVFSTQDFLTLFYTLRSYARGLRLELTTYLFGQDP
TAOK2, sequence (Q9UL54 whole entry, species assumed): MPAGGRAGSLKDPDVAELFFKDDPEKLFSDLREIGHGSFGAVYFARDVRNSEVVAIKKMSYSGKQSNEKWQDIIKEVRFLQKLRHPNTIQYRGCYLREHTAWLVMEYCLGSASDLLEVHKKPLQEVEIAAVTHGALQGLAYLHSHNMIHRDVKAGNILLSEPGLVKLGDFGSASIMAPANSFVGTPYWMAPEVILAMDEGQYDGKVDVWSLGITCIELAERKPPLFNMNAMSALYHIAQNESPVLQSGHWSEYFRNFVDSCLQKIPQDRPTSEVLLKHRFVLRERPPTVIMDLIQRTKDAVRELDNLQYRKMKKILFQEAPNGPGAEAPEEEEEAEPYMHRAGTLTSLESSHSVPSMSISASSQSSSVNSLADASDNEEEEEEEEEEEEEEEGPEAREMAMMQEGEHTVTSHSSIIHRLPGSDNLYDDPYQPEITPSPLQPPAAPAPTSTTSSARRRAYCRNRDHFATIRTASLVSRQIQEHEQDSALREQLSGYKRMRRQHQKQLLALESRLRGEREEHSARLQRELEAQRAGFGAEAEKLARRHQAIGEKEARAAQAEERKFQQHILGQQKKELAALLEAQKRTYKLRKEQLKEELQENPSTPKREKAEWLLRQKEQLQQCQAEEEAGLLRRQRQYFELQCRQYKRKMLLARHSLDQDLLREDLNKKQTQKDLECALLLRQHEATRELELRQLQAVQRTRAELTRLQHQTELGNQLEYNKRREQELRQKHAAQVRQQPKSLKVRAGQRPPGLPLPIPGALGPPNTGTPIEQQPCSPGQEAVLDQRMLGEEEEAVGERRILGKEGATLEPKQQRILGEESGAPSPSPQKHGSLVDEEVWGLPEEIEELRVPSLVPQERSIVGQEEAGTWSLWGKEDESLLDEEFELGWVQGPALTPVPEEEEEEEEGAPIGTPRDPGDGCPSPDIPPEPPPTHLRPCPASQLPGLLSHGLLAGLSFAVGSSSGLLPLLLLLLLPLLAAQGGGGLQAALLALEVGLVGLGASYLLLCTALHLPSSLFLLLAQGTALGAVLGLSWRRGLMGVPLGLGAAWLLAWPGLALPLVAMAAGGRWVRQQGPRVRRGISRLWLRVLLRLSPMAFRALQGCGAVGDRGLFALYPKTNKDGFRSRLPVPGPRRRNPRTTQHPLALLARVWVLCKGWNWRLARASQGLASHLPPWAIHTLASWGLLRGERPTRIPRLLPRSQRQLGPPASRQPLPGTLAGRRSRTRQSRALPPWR
LCK, sequence (P06239 whole entry, species assumed): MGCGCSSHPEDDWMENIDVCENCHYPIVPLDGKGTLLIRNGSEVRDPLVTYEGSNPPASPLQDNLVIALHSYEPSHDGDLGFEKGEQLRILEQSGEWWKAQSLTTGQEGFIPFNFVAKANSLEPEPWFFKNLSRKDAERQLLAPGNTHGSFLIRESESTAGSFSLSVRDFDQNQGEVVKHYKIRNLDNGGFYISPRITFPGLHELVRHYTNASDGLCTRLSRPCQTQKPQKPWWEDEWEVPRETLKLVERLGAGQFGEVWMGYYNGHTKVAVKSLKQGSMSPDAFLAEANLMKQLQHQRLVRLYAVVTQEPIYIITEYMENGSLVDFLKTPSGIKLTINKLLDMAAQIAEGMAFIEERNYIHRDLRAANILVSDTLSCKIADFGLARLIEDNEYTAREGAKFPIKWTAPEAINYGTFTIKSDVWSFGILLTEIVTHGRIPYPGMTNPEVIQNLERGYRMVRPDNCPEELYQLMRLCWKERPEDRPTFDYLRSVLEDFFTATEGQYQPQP
IRAK4, sequence (Q9NWZ3 whole entry, species assumed): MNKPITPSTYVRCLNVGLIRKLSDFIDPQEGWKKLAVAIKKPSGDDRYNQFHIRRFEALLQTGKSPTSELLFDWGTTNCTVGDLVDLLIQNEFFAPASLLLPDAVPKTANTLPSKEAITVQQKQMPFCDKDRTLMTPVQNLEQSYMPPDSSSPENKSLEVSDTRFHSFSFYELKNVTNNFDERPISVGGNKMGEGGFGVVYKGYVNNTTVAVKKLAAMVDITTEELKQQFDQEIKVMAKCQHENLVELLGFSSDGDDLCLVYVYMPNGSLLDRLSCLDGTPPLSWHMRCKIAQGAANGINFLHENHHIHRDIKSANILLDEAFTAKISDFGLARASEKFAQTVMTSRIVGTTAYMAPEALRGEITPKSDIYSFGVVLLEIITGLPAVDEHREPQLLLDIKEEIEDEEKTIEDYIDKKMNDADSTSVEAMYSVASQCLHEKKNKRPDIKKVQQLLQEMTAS

SMILES | IC50 [1] | IC50 [2] | IC50 [3] | IC50 [4] | IC50 [5] | IC50 [6] | IC50 [7] | inhibition at 10 µM [8] | IC50 [9]
Nc1ccc(-c2ccc3ncc4c(=O)[nH]c(=O)n(-c5cccc(C(F)(F)F)c5)c4c3n2)cn1 [Compound 5, 9-(6-aminopyridin-3-yl)-1-(3-(trifluoromethyl)phenyl)pyrimido[5,4-c][1,5]naphthyridine-2,4(1H,3H)-dione] | 1470 nM | 6250 nM | > 10000 nM | 1130 nM | > 10000 nM | > 10000 nM | > 10000 nM | 13% | 
O=c1[nH]c(=O)n(-c2cccc(C(F)(F)F)c2)c2c1cnc1ccc(-c3cnc4[nH]ccc4c3)nc12 [Compound 30, 9-(1H-pyrrolo[2,3-b]pyridin-5-yl)-1-(3-(trifluoromethyl)phenyl)pyrimido[5,4-c][1,5]naphthyridine-2,4(1H,3H)-dione] |  |  |  |  |  |  |  |  | 1.12 nM
